SMILES strings stand for the structures.

For this assay, the system named is Aβ42 (human neuroglioma H4 cells expressing human wild type APP751). The assay can be described thus: In vitro cell screening assay with sandwich ELISA quantification of Aβ42 peptide. The conditions noted are these: H4 cells stably expressing human wild type APP751; Pro293 chemically defined medium; compounds 0.003-10 μM; incubated overnight (16-18 h); supernatant Aβ42 by sandwich ELISA; normalized to DMSO and DAPT; read-out: Aβ42 H4 Prot Fre IC50. The class given is cell-based. The method, boiled down: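 Aβ42 in supernatants was quantified by sandwich ELISA with C-terminal-specific capture and 4G8-HRP detection, absorbance at 450 nm. Stable APP751-expressing human H4 cells received compound at 0.003-10 μM (0.33% DMSO) overnight (16-18 h). IC50 was derived from percent-of-DMSO-control data by nonlinear variable-slope fit.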
On the technique in general: In an ELISA, binding on a coated surface is turned into a signal by an enzyme label.
What is called IC50 is the concentration needed to halve the response being measured. Turning to `COc1cc(Nc2ncc3c(n2)N(C)C(c2ccc(F)cc2C)CO3)ccc1-n1cnc(C)c1` (racemic) [Example 54], the IC50 is 75 nM. In the case of `COc1cc(Nc2ncc3c(n2)N(C)C(c2cc(F)c(F)c(F)c2)CO3)ccc1-n1cnc(C)c1` (single isomer, unassigned; (+)) [Example 40B], the IC50 came to 11 nM. The result for `COc1cc(Nc2ncc3c(n2)N(C)C(c2cc(C(F)(F)F)ccc2Cl)CO3)ccc1-n1cnc(C)c1` (single isomer, unassigned; (+)) [Example 88A] reads 37 nM; that for `Cc1cc(-c2ccc(Nc3ncc4c(n3)N(C)C(c3ccccc3C)CO4)cc2)ccn1` (single isomer, unassigned; (+)) [Example 29B], 68 nM. The result for `COc1cc(Nc2ncc3c(n2)N(C)C(C2(C(F)(F)F)CC2)CO3)cnc1-n1cnc(C)c1` (single isomer, unassigned; (-)) [Example 247A] reads 252 nM; that for `COc1cc(Nc2ncc3c(n2)N2CCOC[C@H]2CO3)ccc1-n1cnc(C)c1` [Example 295], 496 nM; that for `COc1cc(Nc2ncc3c(n2)N(C)C(C2CCC(F)(F)CC2)CO3)ccc1-n1cnc(C)c1` (single isomer, unassigned; (+)) [Example 216B], 33 nM. Regarding `COc1cc(Nc2ncc3c(n2)N(C)C2(CCCC2)CO3)ccc1-c1cnn(C)c1` [Example 264], the IC50 came out at 260 nM. For `COc1cc(Nc2ncc3c(n2)N(C)C(c2ccccc2C)CO3)ccc1-n1cnc(C)c1` (single isomer, unassigned; (+)) [Example 31B], the IC50 amounted to 29.6 nM. As to `COc1cc(Nc2ncc3c(n2)N(C)[C@@H](COc2ccccc2)CO3)ccc1-n1cnc(C)c1` [Example 200], the IC50 is 30 nM. Consider `Cc1cn(-c2ccc(Nc3ncc4c(n3)N(C)C(c3ccccc3C)CO4)cc2F)cn1` (single isomer, unassigned; (-)) [Example 34B], for which the IC50 stood at 460 nM. As for `COc1cc(Nc2ncc3c(n2)N(C)C(C)(C)CO3)cnc1-c1cnn(C)c1` [Example 270], the IC50 is greater than 3000 nM. Take `COc1cc(Nc2ncc3c(n2)N(C)C(C(F)(F)F)CO3)ccc1-n1cnc(C)n1` (single isomer, unassigned; (-)) [Example 242A]: the IC50 came to 78 nM.

With `Cc1cn(-c2ccc(Nc3ncc4c(n3)N(C)C(c3cc(Cl)ccc3C(F)(F)F)CO4)cc2F)cn1` (single isomer, unassigned; (-)) [Example 100B], the IC50 was 588 nM. The result for `COc1nc(Nc2ncc3c(n2)N(C)C(c2ccccc2C)CO3)ccc1-n1cnc(C)c1` (single isomer, unassigned; (+)) [Example 180B] reads 374 nM.

Consider `Cc1cn(-c2ccc(Nc3ncc4c(n3)N(C)C(c3cc(F)c(F)cc3Cl)CO4)cc2F)cn1` (single isomer, unassigned; (+)) [Example 169A], for which the IC50 was found to be 45 nM. In the case of `COc1cc(Nc2ncc3c(n2)N(C)[C@H](CO)CO3)ccc1-n1cnc(C)c1` [Example 177, (R)-(2-((3-methoxy-4-(4-methyl-1H-imidazol-1-yl)phenyl)amino)-8-methyl-7,8-dihydro-6H-pyrimido [5,4-b] [1, 4]oxazin-7-yl) methanol], the IC50 was 262 nM. The value for `COc1cc(Nc2ncc3c(n2)N(C)C(c2cc(F)cc(F)c2)CO3)ccc1-n1cnc(C)c1` (single isomer, unassigned; (+)) [Example 30B] was 23 nM; that for `COc1cc(Nc2ncc3c(n2)N(C)C2(CC2)CO3)ccc1-n1cnc(C)c1` [Example 257] was 49 nM. Consider `COc1cc(Nc2ncc3c(n2)N(C)C(C2(C(F)(F)F)CC2)CO3)cnc1-n1cnc(C)c1` (single isomer, unassigned; (+)) [Example 247B], for which the IC50 turned out to be 5 nM. The value for `COc1cc(Nc2ncc3c(n2)N(C)C(c2ccc(Cl)cc2C(F)(F)F)CO3)ccc1-n1cnc(C)c1` (single isomer, unassigned; (-)) [Example 112A] was 231 nM. Turning to `COc1cc(Nc2ncc3c(n2)N(C)C(C2CCC(F)(F)CC2)CO3)cnc1-c1cnn(C)c1` (single isomer, unassigned; (+)) [Example 231A], the IC50 stood at 342 nM.

Take `COc1cc(Nc2ncc3c(n2)N2CC(F)(F)C[C@H]2CO3)ccc1-n1cnc(C)c1` [Example 297, (S)-8,8-difluoro-N-(3-methoxy-4-(4-methyl-1H-imidazol-1-yl)phenyl)-6a, 7,8,9-tetrahydro-6H-pyrimido [5,4-b] pyrrolo [1,2-d] [1, 4] oxazin-2-amine]: the 50% inhibitory concentration (IC50) is 99 nM. The result for `Cc1cc(-c2ccc(Nc3ncc4c(n3)N(C)C(c3ccc(F)cc3)CO4)cc2F)ccn1` (single isomer, unassigned; (-)) [Example 56B] reads 3460 nM; that for `COc1cc(Nc2ncc3c(n2)N(C)C(C)CO3)ccc1-n1cnc(C)c1` (racemic) [Example 52], 205 nM; that for `COc1cc(Nc2ncc3c(n2)N(C)C(c2ccccc2OC(F)(F)F)CO3)ccc1-n1cnc(C)c1` (single isomer, unassigned; (+)) [Example 60B], 78 nM. The value for `Cc1cn(-c2ncc(Nc3ncc4c(n3)N(C)C(c3cc(F)cc(F)c3)CO4)cc2Cl)cn1` (single isomer, unassigned; (+)) [Example 210A] was 41 nM. The result for `Cc1cn(-c2ccc(Nc3ncc4c(n3)N(C)C(c3ccccc3Cl)CO4)cc2F)cn1` (single isomer, unassigned; (+)) [Example 67A] reads 124 nM; that for `COc1cc(Nc2ncc3c(n2)N(C)C(c2ccccc2OC(F)(F)F)CO3)ccc1-c1ccnc(C)c1` (single isomer, unassigned; (+)) [Example 62B], 165 nM. As to `COc1cc(Nc2ncc3c(n2)N(C)C(C(F)(F)F)CO3)ccc1-n1cnc(C)c1` (single isomer, unassigned; (+)) [Example 187A], the IC50 is 419 nM. The value for `COc1cc(Cl)c(C2COc3cnc(Nc4ccc(-n5cnc(C)c5)c(OC)c4)nc3N2C)cc1Cl` (single isomer, unassigned; (-)) [Example 174A] was 150 nM; that for `Cc1cc(-c2ccc(Nc3ncc4c(n3)N(C)C(c3ccccc3C)CO4)cc2F)ccn1` (single isomer, unassigned; (+)) [Example 32B] was 131 nM.

Turning to `COc1cc(Nc2ncc3c(n2)N(C)C(c2ccccc2C)CO3)ccc1-c1ccnc(C)c1` (single isomer, unassigned; (+)) [Example 35B], the IC50 is 35 nM.

As for `COc1nc(Nc2ncc3c(n2)N(C)C(c2cc(F)c(F)cc2F)CO3)ccc1-n1cnc(C)c1` (racemic) [Example 191], the half-inhibitory concentration (IC50) was 2250 nM. The result for `COc1cc(Nc2ncc3c(n2)N(C)C(CC(F)(F)F)CO3)cnc1-n1cnc(C)c1` (single isomer, unassigned; (+)) [Example 238B] reads 66 nM; that for `COc1ccc(C2COc3cnc(Nc4ccc(-n5cnc(C)c5)c(OC)c4)nc3N2C)c(C)c1` (racemic) [Example 92], 27 nM.

For the compound `COC[C@H]1COc2cnc(Nc3ccc(-n4cnc(C)c4)c(OC)c3)nc2N1C` [Example 111], the IC50 was 120 nM. The result for `COc1cc(Nc2ncc3c(n2)N(C)C(CC(F)(F)F)CO3)ccc1-n1cnc(C)c1` (single isomer, unassigned; (+)) [Example 172B] reads 54 nM. The value for `COc1cc(Nc2ncc3c(n2)N(C)C(c2cc(C(F)(F)F)ccc2Cl)CO3)ccc1-n1cnc(C)c1` (racemic) [Example 88] was 39 nM; that for `Cc1cc(-c2ccc(Nc3ncc4c(n3)N(C)C(c3ccccc3)CO4)cc2F)ccn1` (racemic) [Example 27] was 374 nM.

Regarding `Cc1cn(-c2ccc(Nc3ncc4c(n3)N(C)C(Cc3ccccc3)CO4)cc2F)cn1` (single isomer, unassigned; (+)) [Example 59A], the IC50 is 81 nM. Take `COc1cc(Nc2ncc3c(n2)N(C)C(c2cc(F)cc(F)c2)CO3)ncc1-n1cnc(C)c1` (single isomer, unassigned; (+)) [Example 220B]: the half-inhibitory concentration (IC50) stood at 44 nM. The value for `COc1cc(Nc2ncc3c(n2)N(C)[C@@H](C2CCC2)CO3)cnc1-n1cnc(C)c1` [Example 235] was 17 nM; that for `COc1cc(Nc2ncc3c(n2)N(C)C(c2ccccc2Cl)CO3)ccc1-c1ccnc(C)c1` (single isomer, unassigned; (+)) [Example 85B] was 130 nM.

As for `COc1cc(Nc2ncc3c(n2)N(C)C2(CCCC2)CO3)cnc1-c1cnn(C)c1` [Example 266], the IC50 was greater than 3000 nM. As to `COc1cc(Nc2ncc3c(n2)N(C)C(c2ccccc2C(F)(F)F)CO3)ccc1-n1cnc(C)c1` (single isomer, unassigned; (-)) [Example 55A], the IC50 stood at 102 nM.

Turning to `Cc1cn(-c2ccc(Nc3ncc4c(n3)N(C)C(c3cc(F)c(F)cc3Cl)CO4)cc2F)cn1` (single isomer, unassigned; (-)) [Example 169B], the IC50 came to 2260 nM.

As to `COc1cc(Nc2ncc3c(n2)N(C)C(c2ccc(F)cc2C(F)(F)F)CO3)ccc1-n1cnc(C)c1` (single isomer, unassigned; (+)) [Example 94B], the IC50 stood at 29 nM. The value for `COc1cc(Nc2ncc3c(n2)N(C)C(c2ccccc2Cl)CO3)ccc1-n1cnc(C)c1` (racemic) [Example 51] was 32 nM.

Consider `COc1cc(Nc2ncc3c(n2)N(C)C(c2ccccc2C)CO3)ccc1-c1ccnc(C)c1` (racemic) [Example 35], for which the IC50 came to 87 nM. With `COc1cc(Nc2ncc3c(n2)N(C)C(C2COC2)CO3)cnc1-n1cnc(C)c1` (single isomer, unassigned; (+)) [Example 243A], the IC50 is 601 nM.

Take `Cc1cn(-c2ccc(Nc3ncc4c(n3)N(C)C3(CC3)CO4)nc2)cn1` [Example 265]: the IC50 is greater than 3000 nM.

Values taken from patent publication US9771378B2 (Denali Therapeutics, Inc., priority 2014, dated 2017).
